US8124647B2 (priority 2002, dated 2012)

Legend:
human androgen receptor [1] = target: T1, human androgen receptor (Homo sapiens, UniProt P10275); test: androgenic activity (EC50 and intrinsic activity), transactivation bioassay in CHO-AR-pMMTV-LUC cells (Table 4); assay type: cell-based
T1 construct: expressed in transfected cells; host or cells: CHO cells, cell line CHO-AR-pMMTV-LUC 1G12-A5-CA
T1 sequence (P10275 1-920): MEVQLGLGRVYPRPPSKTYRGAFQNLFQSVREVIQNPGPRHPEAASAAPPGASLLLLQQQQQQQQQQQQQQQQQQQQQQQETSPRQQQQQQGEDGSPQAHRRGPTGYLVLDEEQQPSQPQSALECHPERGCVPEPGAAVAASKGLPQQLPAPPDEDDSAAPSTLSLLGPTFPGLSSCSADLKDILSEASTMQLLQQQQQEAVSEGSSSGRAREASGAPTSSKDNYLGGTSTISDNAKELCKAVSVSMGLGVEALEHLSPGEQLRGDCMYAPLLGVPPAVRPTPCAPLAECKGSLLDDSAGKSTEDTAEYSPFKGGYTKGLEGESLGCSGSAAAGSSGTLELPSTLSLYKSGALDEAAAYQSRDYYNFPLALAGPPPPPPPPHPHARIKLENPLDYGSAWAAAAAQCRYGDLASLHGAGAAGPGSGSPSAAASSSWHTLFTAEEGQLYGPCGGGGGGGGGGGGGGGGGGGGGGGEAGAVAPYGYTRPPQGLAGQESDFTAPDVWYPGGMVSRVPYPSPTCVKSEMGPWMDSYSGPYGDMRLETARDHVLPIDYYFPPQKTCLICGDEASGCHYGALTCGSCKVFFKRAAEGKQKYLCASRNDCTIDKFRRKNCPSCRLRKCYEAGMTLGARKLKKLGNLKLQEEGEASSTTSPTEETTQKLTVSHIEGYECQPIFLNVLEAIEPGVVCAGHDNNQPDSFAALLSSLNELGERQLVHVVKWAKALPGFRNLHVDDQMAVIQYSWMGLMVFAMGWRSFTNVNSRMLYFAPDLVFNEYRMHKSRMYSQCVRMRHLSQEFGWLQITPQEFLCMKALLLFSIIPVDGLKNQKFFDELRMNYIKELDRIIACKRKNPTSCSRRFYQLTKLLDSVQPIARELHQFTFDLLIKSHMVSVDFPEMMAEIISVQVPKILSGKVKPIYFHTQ
Experimental: (§1) Compounds were tested for their Androgen Receptor activity in a transactivation assay and in a binding assay.
(§2) The (anti-)androgenic activity of test compounds (EC50 and intrinsic activity) was determined in an in vitro bioassay of Chinese hamster ovary (CHO) cells stably transfected with the human androgen receptor expression plasmid and a reporter plasmid in which the MMTV-promoter is linked to the luciferase reporter gene. The cell-line CHO-AR-pMMTV-LUC 1G12-A5-CA is described in Schoonen et al. (2000), Journal of Steroid Biochemistry and Molecular Biology 74(4):213-222. The antiandrogenic activity of a test compound was determined by the inhibition of the transactivation via the androgen receptor of the enzyme luciferase in the presence of 1 nM DHT (5α-dihydrotestosterone, 17β-hydroxy-5α-androstan-3-one). Intrinsic activity of antiandrogenic activity was determined in the presence of the reference antiandrogen 2-Hydroxy-2-methyl-N-(4-nitro-3-trifluoromethyl-phenyl)-propionamide(Hydroxyflutamide), and set at 100%. For androgenic activity, maximal intrinsic activity in the presence of 100 nM DHT was set at 100%.

human androgen receptor [2] = target: T1, human androgen receptor; test: cell-based; settings: in the presence of 1 nM DHT
Experimental: as §1, §2

[3] = androgenic activity, read-out: ago EC50
[4] = antiandrogenic activity, read-out: ant EC50

SMILES	EC50 (human androgen receptor [1]; [3])	EC50 (human androgen receptor [2]; [4])	EC50 (human androgen receptor [1]; ago EC50, androgenic activity)	EC50 (human androgen receptor [2]; ant EC50, antiandrogenic activity)	ant efficacy (human androgen receptor [2]; reference antiandrogen Hydroxyflutamide set at 100%)
COc1ccc2c(Sc3ccccc3[N+](=O)[O-])cn(Cc3cc(F)ccc3F)c2c1 [Compound 1]	5 to 100 nM	> 10000 nM			
COc1ccc2c(Sc3ccccc3[N+](=O)[O-])cn(Cc3cccc(C)c3F)c2c1 [Compound 2]	< 1000 nM	> 10000 nM			
COc1ccc2c(Sc3ccccc3[N+](=O)[O-])cn(Cc3ccccc3Cl)c2c1 [Compound 3]	< 1000 nM	> 10000 nM			
COc1ccc2c(Sc3ccccc3[N+](=O)[O-])cn(Cc3ccccc3C#N)c2c1 [Compound 4]	< 1000 nM	5 to 100 nM			
COc1ccc2c(Sc3ccccc3[N+](=O)[O-])cn(Cc3ccccc3F)c2c1 [Compound 5]	< 1000 nM	> 10000 nM			
COc1ccc2c(Sc3ccccc3[N+](=O)[O-])cn(Cc3cccc([N+](=O)[O-])c3C)c2c1 [Compound 6]		> 10000 nM	< 1000 nM		
COc1ccc2c(Sc3ccccc3[N+](=O)[O-])cn(Cc3ccccc3C)c2c1 [Compound 7]	5 to 100 nM	> 10000 nM			
COc1ccc2c(Sc3ccccc3[N+](=O)[O-])cn(Cc3ccccc3[N+](=O)[O-])c2c1 [Compound 8]			5 to 100 nM	> 10000 nM	
COc1ccc2c(Sc3ccccc3[N+](=O)[O-])cn(Cc3ccccn3)c2c1 [Compound 9, 6-Methoxy-3-(2-nitro-phenylsulfanyl)-1-pyridin-2-ylmethyl-1H-indole]	< 5 nM	< 5 nM			
COc1ccc2c(Sc3ccccc3[N+](=O)[O-])cn(Cc3ccccn3)c2c1.Cl [Compound 10, 6-Methoxy-3-(2-nitro-phenylsulfanyl)-1-pyridin-2-ylmethyl-1H-indole monohydrochloride]	5 to 100 nM	> 10000 nM			− (− <0.20)
COc1ccc2c(Sc3ccccc3[N+](=O)[O-])cn(CC3CCCCO3)c2c1 (stereo not drawn) [Compound 11]	5 to 100 nM	> 10000 nM			
COc1ccc2c(Sc3ccccc3[N+](=O)[O-])cn(Cc3ccccc3C(F)(F)F)c2c1 [Compound 12]	< 1000 nM	> 10000 nM			
COc1ccc2c(Sc3ccccc3[N+](=O)[O-])cn(Cc3cc(C)on3)c2c1 [Compound 13]	< 1000 nM	> 10000 nM			
COc1ccc2c(Sc3ccccc3[N+](=O)[O-])cn(Cc3ccc(Cl)c(Cl)c3)c2c1 [Compound 14]	< 1000 nM	> 10000 nM			
COc1ccc2c(Sc3ccccc3[N+](=O)[O-])cn(Cc3cc(Cl)cc(Cl)c3)c2c1 [Compound 15]	5 to 100 nM	> 10000 nM			
COc1ccc2c(Sc3ccccc3CO)cn(Cc3cc(F)cc(F)c3)c2c1 [Compound 16, {2-[1-(3,5-Difluoro-benzyl)-6-methoxy-1H-indol-3-ylsulfanyl]-phenyl}-methanol]	5 to 100 nM	5 to 100 nM			
CNC(=O)c1ccccc1Sc1cn(Cc2cc(F)cc(F)c2)c2cc(OC)ccc12 [Compound 17, 2-[1-(3,5-Difluoro-benzyl)-6-methoxy-1H-indol-3-ylsulfanyl]-N-methyl-benzamide]	> 10000 nM	< 1000 nM			
COc1ccc2c(Sc3ccccc3C(N)=O)cn(Cc3cc(F)cc(F)c3)c2c1 [Compound 18, 2-[1-(3,5-Difluoro-benzyl)-6-methoxy-1H-indol-3-ylsulfanyl]-benzamide]	5 to 100 nM	5 to 100 nM			
COC(=O)c1ccccc1Sc1cn(Cc2cc(F)cc(F)c2)c2cc(OC)ccc12 [Compound 19, 2-[1-(3,5-Difluoro-benzyl)-6-methoxy-1H-indol-3-ylsulfanyl]-benzoic acid methyl ester]	< 1000 nM	> 10000 nM			
COc1ccc2c(Sc3ccccc3C#N)cn(Cc3cc(F)cc(F)c3)c2c1 [Compound 20, 2-[1-(3,5-Difluoro-benzyl)-6-methoxy-1H-indol-3-ylsulfanyl]-benzonitrile]	5 to 100 nM	> 10000 nM			
O=[N+]([O-])c1ccccc1Sc1cn(Cc2cc(F)cc(F)c2)c2cc(Br)ccc12 [Compound 22]	5 to 100 nM	> 10000 nM			

SMILES	EC50 (human androgen receptor [1]; [3])	EC50 (human androgen receptor [2]; [4])	EC50 (human androgen receptor [1]; ago EC50, androgenic activity)	EC50 (human androgen receptor [2]; ant EC50, antiandrogenic activity)	ant efficacy (human androgen receptor [2]; reference antiandrogen Hydroxyflutamide set at 100%)
O=[N+]([O-])c1ccccc1Sc1cn(Cc2cc(F)cc(F)c2)c2cc(C(F)(F)F)ccc12 [Compound 23]	< 5 nM	> 10000 nM			
O=[N+]([O-])c1ccccc1Sc1cn(Cc2cc(F)cc(F)c2)c2cc(CO)ccc12 [Compound 24]	5 to 100 nM	> 10000 nM			
O=[N+]([O-])c1ccccc1Sc1cn(Cc2cc(F)cc(F)c2)c2cc(Cl)ccc12 [Compound 25]	< 5 nM	> 10000 nM			
N#Cc1ccc2c(Sc3ccccc3[N+](=O)[O-])cn(Cc3cc(F)cc(F)c3)c2c1 [Compound 26, 1-(3,5-Difluoro-benzyl)-3-(2-nitro-phenylsulfanyl)-1H-indole-6-carbonitrile]	< 5 nM	> 10000 nM			
O=C(c1ccc2c(Sc3ccccc3[N+](=O)[O-])cn(Cc3cc(F)cc(F)c3)c2c1)N1CCCC1 [Compound 27]	5 to 100 nM	> 10000 nM			
O=C(c1ccc2c(Sc3ccccc3[N+](=O)[O-])cn(Cc3cc(F)cc(F)c3)c2c1)N1CCOCC1 [Compound 28]	5 to 100 nM	> 10000 nM			
CN1CCN(C(=O)c2ccc3c(Sc4ccccc4[N+](=O)[O-])cn(Cc4cc(F)cc(F)c4)c3c2)CC1 [Compound 29]	5 to 100 nM	> 10000 nM			
O=C(O)c1ccc2c(Sc3ccccc3[N+](=O)[O-])cn(Cc3cc(F)cc(F)c3)c2c1 [Compound 30, 1-(3,5-Difluoro-benzyl)-3-(2-nitro-phenylsulfanyl)-1H-indole-6-carboxylic acid]	< 1000 nM	> 10000 nM			
COC(=O)c1ccc2c(Sc3ccccc3[N+](=O)[O-])cn(Cc3cc(F)cc(F)c3)c2c1 [Compound 31, 1-(3,5-Difluoro-benzyl)-3-(2-nitro-phenylsulfanyl)-1H-indole-6-carboxylic acid methyl ester]	< 5 nM	> 10000 nM			
CCN(CC)C(=O)c1ccc2c(Sc3ccccc3[N+](=O)[O-])cn(Cc3cc(F)cc(F)c3)c2c1 [Compound 32]	5 to 100 nM	< 1000 nM			
NC(=O)c1ccc2c(Sc3ccccc3[N+](=O)[O-])cn(Cc3cc(F)cc(F)c3)c2c1 [Compound 33, 1-(3,5-Difluoro-benzyl)-3(2-nitro-phenylsulfanyl)-1H-indole-6-carboxylic acid amide]	< 5 nM	> 10000 nM			
O=C(NCc1ccco1)c1ccc2c(Sc3ccccc3[N+](=O)[O-])cn(Cc3cc(F)cc(F)c3)c2c1 [Compound 34]	5 to 100 nM	> 10000 nM			
O=C(NCc1cccnc1)c1ccc2c(Sc3ccccc3[N+](=O)[O-])cn(Cc3cc(F)cc(F)c3)c2c1 [Compound 35]	5 to 100 nM	> 10000 nM			
CN(C)CCNC(=O)c1ccc2c(Sc3ccccc3[N+](=O)[O-])cn(Cc3cc(F)cc(F)c3)c2c1 [Compound 36]	5 to 100 nM	> 10000 nM			
O=C(NCCO)c1ccc2c(Sc3ccccc3[N+](=O)[O-])cn(Cc3cc(F)cc(F)c3)c2c1 [Compound 37]	< 5 nM	> 10000 nM			
COCCNC(=O)c1ccc2c(Sc3ccccc3[N+](=O)[O-])cn(Cc3cc(F)cc(F)c3)c2c1 [Compound 38]	< 5 nM	> 10000 nM			
COC(=O)CNC(=O)c1ccc2c(Sc3ccccc3[N+](=O)[O-])cn(Cc3cc(F)cc(F)c3)c2c1 [Compound 39]	5 to 100 nM	> 10000 nM			
CN(C)C(=O)CNC(=O)c1ccc2c(Sc3ccccc3[N+](=O)[O-])cn(Cc3cc(F)cc(F)c3)c2c1 [Compound 40]	5 to 100 nM	> 10000 nM			
O=[N+]([O-])c1ccccc1Sc1cn(Cc2cc(F)cc(F)c2)c2ccc(O)cc12 [Compound 56]	< 5 nM				
O=[N+]([O-])c1ccccc1Sc1cn(Cc2cc(F)cc(F)c2)c2cc(O)ccc12 [Compound 61, 1-(3,5-Difluoro-benzyl)-3-(2-nitro-phenylsulfanyl)-1H-indol-6-ol]	< 5 nM				
